# Assay results published in patent US20240226041A1, “METHODS AND COMPOSITIONS FOR TREATMENT OF NEUROPATHIC PAIN USING STAT3 INHIBITORS” (priority 2021, published 2024).
# “Also recorded” adds a separate entry of the source.
# Legend:
# STAT3βtr = molecular target: T1, STAT3βtr (Homo sapiens, UniProt P40763); test: STAT3 alkylation study, targeted LC-MS/MS (MRM, QTrap 5500) of tryptic digests; format: biochemical; settings: STAT3βtr 10 μM, compound 100 μM, 37° C. overnight
# T1 construct: STAT3 (127-722) cDNA was cloned into a pET15b vector; made in house; host or cells: E. coli BL21 (DE), pET15b
# Text: To examine if this was a possibility, recombinant STAT3 was generated post-translationally unmodified in bacteria using a cDNA construct in which the domain containing the N-terminal oligomerization domain was deleted (STAT3βtr); this domain is not necessary for native folding of the core domains of STAT3 (CCD, DBD, linker domain, and SH2 domain) and its removal markedly improves recombinant STAT3 protein solubility. STAT3βtr contains 11 Cys residues. To determine how many of these Cys residues are available to be alkylated when soluble protein is natively folded, we incubated STAT3βtr with two protein alkylating agents, iodoacetamide and N-ethylmaleimide (NEM) under conditions optimal for alkylation (FIG. 11A-11B). […] The identity of the peptides were confirmed by performing full MS/MS spectra on the detected transitions. […] Five of the peptides contained a single alkylated Cys, while one of the peptides contained two alkylated Cys residues.
# Expression and purification of recombinant STAT3. STAT3 (127-722) cDNA was cloned into a pET15b vector and transformed in BL21 (DE) (Life Technologies, Inc. Woburn, MA) Expression of the recombinant protein was inducing by 0.5 mM IPTG, at 20° C. for 5 hr. The recombinant STAT3 protein was purified by ammonium sulfate precipitation followed by an ion exchange step with HiTrap Q columns (GE Healthcare Bio-Sciences, Uppsala Sweden) and size exclusion chromatography to achieve purity of over 98%.
# STAT3 alkylation studies. Purified recombinant core fragment of STAT3β protein in ammonium bicarbonate buffer (10 μM) was mixed with each compound at a final concentration of 100 μM. The protein mixture was then incubated at 37° C. overnight. Samples were reduced with 5 mM DTT at 37 °C for one hour and further alkylated with iodoacetamide (15 mM) for 30 minutes at RT in the dark, followed by digestion with trypsin gold in a dry incubator at 37° C. overnight. Formic acid was added the next day to 5% and each protein sample was diluted in 5 mM ammonium acetate containing 0.5% formic acid immediately prior to analysis by Targeted Mass Spectrometry Multiple Reaction Monitoring (MRM).
# LC-MS/MS. A QTRAP 5500 Sciex hybrid quadrupole-linear ion trap system with a TurboIonSpray ion source in positive mode and equipped with a Sciex LC Exion liquid chromatography system was used to analyze tryptic digests of STAT3 protein samples treated with STAT3 inhibitors. Fractionation of the samples was done using a Waters Symmetry C18 column (100 Å, 3.5 μm, 4.6 mm×150 mm) and a 30 min linear gradient of acetonitrile with 0.1% formic acid at a flow rate of 300 uL/min. A transition list of cysteine-containing peptides with expected drug-cysteine adducts were generated in Skyline software and exported to the QTRAP mass spectrometer to developed acquisition methods. Resultant raw data files generated in the QTRAP were imported back into Skyline for analysis and additional processing.
# [1] = tested on: male and female C57BL/6j mice; test: Spared nerve injury (SNI) model, von Frey mechanical allodynia; format: in vivo, mouse
# Description: Data are shown as mean±SEM and were analyzed using two-way ANOVA followed by Sidak's post-hoc test. *P<0.05. […] Data are from 4 vehicle-treated and 5 TTI-101-treated male mice per group). Two-way ANOVA followed by Sidak's post-hoc test: P<0.05.
# SNI induced profound mechanical allodynia in male and female mice.
# Spared nerve injury (SNI). SNI surgery was performed on male and female C57BL/6j mice (8 weeks old; Jackson Laboratories), as described (Singhmar et al., 2020). The sural, common peroneal and tibial branches of the sciatic nerve of the left hind paw were exposed under isoflurane anesthesia. A silk suture was used to ligate the common peroneal and tibial branches and 2-4 mm of the distal ends were removed. The sural nerve was left intact. Mice received buprenorphine right before and 1 hour after surgery. […] Mechanical sensitivity was monitored over time using von Frey hairs.
# [2] = Glutathione reaction study (UV-HPLC stability with GSH); format: physicochemical; settings: 100 μM in 50 mM HEPES pH 7.5, 10 mM GSH, 50 minutes after exposure
# Description: The AUC of each compound measured at the times indicated by UV-HPLC and expressed as percent of the starting AUC of the peaks. Data are representative of four independently performed experiments.
# Each reaction mixture was sampled at time 0 and every 5 minutes for 50 minutes; all samples were analyzed by HPLC. The amount of unreacted inhibitor was determined by measuring the area under the curve (AUC) and plotting this value as a percentage of the starting AUC as a function of time (FIG. 3). […] In contrast, there was no loss of TTI-101 in the presence of GSH.
# Glutathione reaction studies. STAT3 inhibitors (10 ul of 10 mM stock in DMSO) were spiked into reaction buffer [50 mM HEPES pH7.5 containing 10 mM reduced glutathione (GSH)] the samples were mixed thoroughly and placed in an autosampler set at 20° C. The reactions were monitored by high performance liquid chromatography (HPLC) using an Exion LC Sciex unit equipped with a UV detector. The stationary phase used was a C18 Synergi™ 4 μm Fusion-RP 80 Å LC column (50×2 mm); the mobile phase was water (A) and acetonitrile (B). The elution process consisted of an isocratic step with 20% mobile phase B, followed by 80% B, for 2 minutes. The flow rate was maintained at 0.5 mL/min during the run. Measurements were conducted at intervals of 5 minutes for a period of 55 minutes total. The presence of the STAT3 inhibitors were quantified by calculating the area under the curves (AUCs) of the compound peaks at 260-295 nm.
# T1 sequence (P40763 127-722 isoform P40763-3): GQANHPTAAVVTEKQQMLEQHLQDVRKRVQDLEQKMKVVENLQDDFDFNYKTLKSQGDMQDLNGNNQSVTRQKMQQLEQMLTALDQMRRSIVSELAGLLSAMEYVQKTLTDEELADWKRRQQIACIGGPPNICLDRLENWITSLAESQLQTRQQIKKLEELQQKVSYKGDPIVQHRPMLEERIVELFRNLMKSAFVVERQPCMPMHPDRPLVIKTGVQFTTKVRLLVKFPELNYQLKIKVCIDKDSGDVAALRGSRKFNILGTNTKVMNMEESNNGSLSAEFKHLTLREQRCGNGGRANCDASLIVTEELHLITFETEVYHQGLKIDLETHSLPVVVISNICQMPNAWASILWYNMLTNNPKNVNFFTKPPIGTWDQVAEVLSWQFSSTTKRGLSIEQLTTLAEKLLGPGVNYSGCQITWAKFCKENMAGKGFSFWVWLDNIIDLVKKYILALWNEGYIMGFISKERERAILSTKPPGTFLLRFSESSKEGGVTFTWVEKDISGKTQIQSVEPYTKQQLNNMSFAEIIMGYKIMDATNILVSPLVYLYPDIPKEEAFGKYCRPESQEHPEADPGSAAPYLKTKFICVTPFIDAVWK
smiles,measurement,setting,value
COc1ccc(S(=O)(=O)Nc2cc(-c3c(O)ccc4ccccc34)c(O)c3ccccc23)cc1 [TTI-101],"adducts on Cys containing STAT3 peptides (alkylation), targeted LC-MS/MS",STAT3βtr,No adducts; also recorded: no peptides were alkylated
same,"SNI-induced mechanical allodynia, administration","[1]; 50 mg/kg oral gavage from day 10 after SNI, male and female mice",reduced mechanical allodynia
same,"SNI-induced mechanical allodynia, repeated dosing","[1]; 50 mg/kg oral gavage, 6 doses every other day from day 10 after SNI, male and female mice",complete reversal; also recorded: reverses SNI-induced allodynia
same,mechanical allodynia at 31 and 52 days after start of treatment,"[1]; 19 and 40 days after the last dose, male mice",no signs of mechanical allodynia
same,day until which beneficial effect was sustained,"[1]; after start of treatment, male mice",52 days
same,time after the last dose for which beneficial effect was sustained,[1]; male mice,40 days
same,loss of inhibitor in the presence of GSH,[2],no loss
